What was measured:
[1] = target: T1, PI3K-α (PIK3CA) H1047R mutant, p110α/p85α complex (Homo sapiens, UniProt P42336, H1047R); assay: PI3K-alpha kinase (PIK3CA) biochemical activity, ADP-Glo, H1047R mutant
T1 construct: Recombinant, catalytically active human full length PIK3KA Wild-type and H1047R mutant; 6×His (N); purchased EMD Millipore Sigma 14-792M
In short: (§1)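 ADP formation measured by ADP-Glo luminescence after reaction at 27 °C to about 10% ATP turnover, using 20 uM ATP, 50 uM PIP2diC8 or soy PI lipid, HEPES pH 7.4 with MgCl2. Enzyme (1-5 nM WT or H1047R p110α/p85α) and compound preincubated 1 h first; 10-point 1:3 curves fitted four-parameter for IC50.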

[2] = target: T2, PI3K-α (PIK3CA) wild-type (WT), p110α/p85α complex (Homo sapiens, UniProt P42336); assay: PI3K-alpha kinase (PIK3CA) biochemical activity, ADP-Glo, wild-type
T2 construct: Recombinant, catalytically active human full length PIK3KA Wild-type and H1047R mutant; 6×His (N); purchased EMD Millipore Sigma 14-602M
In short: as §1

[3] = PIP2diC8 lipid substrate (footnote 1)

T1 sequence (P42336 whole entry H1047R): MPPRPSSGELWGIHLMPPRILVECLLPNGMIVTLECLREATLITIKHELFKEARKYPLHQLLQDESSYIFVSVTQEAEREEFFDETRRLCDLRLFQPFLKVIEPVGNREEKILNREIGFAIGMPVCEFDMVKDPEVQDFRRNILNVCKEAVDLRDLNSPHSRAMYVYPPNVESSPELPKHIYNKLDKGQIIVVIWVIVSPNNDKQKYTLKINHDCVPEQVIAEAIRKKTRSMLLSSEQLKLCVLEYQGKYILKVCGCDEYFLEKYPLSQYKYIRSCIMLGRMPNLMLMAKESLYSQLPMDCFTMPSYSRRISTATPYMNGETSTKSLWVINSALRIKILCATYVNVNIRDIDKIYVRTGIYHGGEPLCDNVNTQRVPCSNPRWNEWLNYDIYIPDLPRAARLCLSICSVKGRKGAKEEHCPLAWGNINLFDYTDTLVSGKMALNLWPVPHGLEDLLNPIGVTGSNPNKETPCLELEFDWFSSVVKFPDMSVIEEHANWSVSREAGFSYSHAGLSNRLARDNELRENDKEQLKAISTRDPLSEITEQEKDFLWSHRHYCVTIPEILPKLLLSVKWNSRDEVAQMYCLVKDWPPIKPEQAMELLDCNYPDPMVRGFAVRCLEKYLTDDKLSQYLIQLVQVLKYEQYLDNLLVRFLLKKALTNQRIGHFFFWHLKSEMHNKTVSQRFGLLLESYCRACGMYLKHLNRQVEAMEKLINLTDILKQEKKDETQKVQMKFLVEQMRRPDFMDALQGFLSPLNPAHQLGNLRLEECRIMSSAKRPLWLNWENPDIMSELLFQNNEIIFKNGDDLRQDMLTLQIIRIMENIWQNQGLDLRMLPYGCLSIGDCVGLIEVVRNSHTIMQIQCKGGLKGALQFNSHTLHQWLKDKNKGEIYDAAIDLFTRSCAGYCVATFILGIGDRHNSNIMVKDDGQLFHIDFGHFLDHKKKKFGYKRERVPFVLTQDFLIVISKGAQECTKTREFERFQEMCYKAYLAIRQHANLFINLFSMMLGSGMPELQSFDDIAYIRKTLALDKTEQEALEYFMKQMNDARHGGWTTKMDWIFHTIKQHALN
T1 sequence (P27986 whole entry partner): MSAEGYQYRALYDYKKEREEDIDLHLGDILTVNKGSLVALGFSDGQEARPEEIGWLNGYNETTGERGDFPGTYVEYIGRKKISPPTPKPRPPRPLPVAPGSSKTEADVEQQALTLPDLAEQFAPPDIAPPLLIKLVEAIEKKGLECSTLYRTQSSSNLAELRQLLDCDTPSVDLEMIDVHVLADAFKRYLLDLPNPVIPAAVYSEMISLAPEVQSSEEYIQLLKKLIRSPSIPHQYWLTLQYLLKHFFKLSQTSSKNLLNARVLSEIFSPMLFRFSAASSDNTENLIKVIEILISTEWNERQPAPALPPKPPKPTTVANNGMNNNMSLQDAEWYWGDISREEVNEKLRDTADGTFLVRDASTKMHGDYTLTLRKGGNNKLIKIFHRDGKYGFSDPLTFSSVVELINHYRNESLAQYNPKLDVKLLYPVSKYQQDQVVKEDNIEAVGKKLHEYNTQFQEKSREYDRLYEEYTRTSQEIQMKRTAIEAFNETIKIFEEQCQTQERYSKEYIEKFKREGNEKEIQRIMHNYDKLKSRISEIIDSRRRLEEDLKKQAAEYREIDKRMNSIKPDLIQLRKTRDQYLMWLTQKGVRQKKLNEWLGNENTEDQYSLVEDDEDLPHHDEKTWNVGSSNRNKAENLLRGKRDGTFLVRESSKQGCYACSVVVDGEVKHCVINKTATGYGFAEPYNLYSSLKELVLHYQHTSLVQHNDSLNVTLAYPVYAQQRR

Structure (SMILES)	IC50 ([1]; Soy PI lipid substrate)	IC50 ([2]; Soy PI lipid substrate)	IC50 [1, 3]	IC50 [2, 3]
Cc1cc(C(C)Nc2ccccc2C(=O)O)c2oc(-c3ccn4c(-c5ncco5)c(C)nc4c3)cc(=O)c2c1 (single isomer, unassigned) [Example 133, 2-[1-[6-Methyl-2-(2-methyl-3-oxazol-2-yl-imidazo[1,2-a]pyridin-7-yl)-4-oxo-chromen-8-yl]ethylamino]benzoic acid]	> 10000 nM	> 10000 nM		
Cc1cc(C(C)Nc2ccccc2C(=O)O)c2oc(-c3cn4ccccc4n3)cc(=O)c2c1 (single isomer, unassigned) [Example 66, 2-[1-(2-Imidazo[1,2-a]pyridin-2-yl-6-methyl-4-oxo-chromen-8-yl)ethylamino]benzoic acid]	1000 to 5000 nM	5000 to 10000 nM		
Cc1cc(C(C)Nc2ccccc2C(=O)O)c2oc(-c3cn(C)c4ccccc34)c(C)c(=O)c2c1 (single isomer, unassigned) [Example 140, 2-[1-[3,6-Dimethyl-2-(1-methylindol-3-yl)-4-oxo-chromen-8-yl]ethylamino]benzoic acid]	< 500 nM	1000 to 5000 nM		
Cc1cc(C(C)Nc2ccccc2C(=O)O)c2oc(-c3ccc4c(c3)c(C)nn4C)cc(=O)c2c1 (single isomer, unassigned) [Example 165, 2-[1-[2-(1,3-Dimethylindazol-5-yl)-6-methyl-4-oxo-chromen-8-yl]ethylamino]benzoic acid]	< 500 nM	< 500 nM		
Cc1cc(C(C)Nc2ccc(F)c(F)c2C(=O)O)c2oc(-c3ccc4nc(C)cn4n3)cc(=O)c2c1 (stereo not drawn) [Example 94, 2,3-Difluoro-6-[1-[6-methyl-2-(2-methylimidazo[1,2-b]pyridazin-6-yl)-4-oxo-chromen-8-yl]ethylamino]benzoic acid]	1000 to 5000 nM	> 10000 nM		
Cc1cc(C(C)Nc2ccccc2C(=O)O)c2oc(-c3nccc4cn(C)nc34)cc(=O)c2c1 (single isomer, unassigned) [Example 98, 2-[1-[6-Methyl-2-(2-methylpyrazolo[3,4-c]pyridin-7-yl)-4-oxo-chromen-8-yl]ethylamino]benzoic acid]	5000 to 10000 nM	5000 to 10000 nM		
Cc1cc(C(C)Nc2ccccc2C(=O)O)c2oc(-c3ccc4c(cnn4CC4COC4)c3)cc(=O)c2c1 (single isomer, unassigned) [Example 138, 2-[1-[6-Methyl-2-[1-(oxetan-3-ylmethyl)indazol-5-yl]-4-oxo-chromen-8-yl]ethylamino]benzoic acid]	500 to 1000 nM	> 10000 nM		
Cc1cc(C(C)Nc2ccccc2C(=O)O)c2oc(-n3ncc4ncccc43)cc(=O)c2c1 (single isomer, unassigned) [Example 48, 2-[1-(6-Methyl-4-oxo-2-pyrazolo[4,3-b]pyridin-1-yl-chromen-8-yl)ethylamino]benzoic acid]	< 500 nM	< 500 nM		
Cc1cc(C(C)Nc2ccccc2C(=O)O)c2oc(-c3ccc4ccnn4c3)cc(=O)c2c1 (single isomer, unassigned) [Example 67, 2-[1-(6-Methyl-4-oxo-2-pyrazolo[1,5-a]pyridin-6-yl-chromen-8-yl)ethylamino]benzoic acid]	< 500 nM	1000 to 5000 nM		
Cc1cc(C(C)Nc2ccccc2C(=O)O)c2oc(-c3cnn4cccnc34)cc(=O)c2c1 (stereo not drawn) [Example 6, 2-[1-(6-Methyl-4-oxo-2-pyrazolo[1,5-a]pyrimidin-3-yl-chromen-8-yl)ethylamino]benzoic acid]	< 500 nM	1000 to 5000 nM		
Cc1cc(C(C)Nc2ccccc2C(=O)O)c2oc(-c3c[nH]c4ccccc34)c(C)c(=O)c2c1 (single isomer, unassigned) [Example 154, 2-[1-[2-(1H-Indol-3-yl)-3,6-dimethyl-4-oxo-chromen-8-yl]ethylamino]benzoic acid]	< 500 nM	1000 to 5000 nM		
Cc1cc(C(C)Nc2ccccc2C(=O)O)c2oc(-c3nn(C)c4ccccc34)c(C)c(=O)c2c1 (single isomer, unassigned) [Example 146, 2-[1-[3,6-Dimethyl-2-(1-methylindazol-3-yl)-4-oxo-chromen-8-yl]ethylamino]benzoic acid]	< 500 nM	500 to 1000 nM		
Cc1cc(C(C)Nc2ccccc2C(=O)O)c2oc(-c3cnn4ccccc34)cc(=O)c2c1 (stereo not drawn) [Example 10, 2-[1-(6-Methyl-4-oxo-2-pyrazolo[1,5-a]pyridin-3-yl-chromen-8-yl)ethylamino]benzoic acid]	< 500 nM	1000 to 5000 nM		

The next lines start with the values.

IC50 ([1]; Soy PI lipid substrate)	IC50 ([2]; Soy PI lipid substrate)	IC50 [1, 3]	IC50 [2, 3]	Structure (SMILES)
< 500 nM	1000 to 5000 nM			Cc1cc(C(C)Nc2ccccc2C(=O)O)c2oc(-c3ccc4nc(C)cn4c3)cc(=O)c2c1 (stereo not drawn) [Example 16, 2-[1-[6-Methyl-2-(2-methylimidazo[1,2-a]pyridin-6-yl)-4-oxo-chromen-8-yl]ethylamino]benzoic acid]
< 500 nM	< 500 nM			Cc1cc(C(C)Nc2ccccc2C(=O)O)c2oc(-c3ccc4nn(C)cc4c3)cc(=O)c2c1 (stereo not drawn) [Example 13, 2-[1-[6-Methyl-2-(2-methylindazol-5-yl)-4-oxo-chromen-8-yl]ethylamino]benzoic acid]
< 500 nM	1000 to 5000 nM			Cc1cc(C(C)Nc2ccccc2C(=O)O)c2oc(-c3c[nH]c4ccccc34)cc(=O)c2c1 (single isomer, unassigned) [Example 155, 2-[1-[2-(1H-Indol-3-yl)-6-methyl-4-oxo-chromen-8-yl]ethylamino]benzoic acid]
< 500 nM	1000 to 5000 nM			Cc1cc(C(C)Nc2ccccc2C(=O)O)c2oc(-c3ccc4nc(C)cn4c3)cc(=O)c2c1 (single isomer, unassigned) [Example 17, 2-[1-[6-Methyl-2-(2-methylimidazo[1,2-a]pyridin-6-yl)-4-oxo-chromen-8-yl]ethylamino]benzoic acid]
< 500 nM	5000 to 10000 nM			Cc1cc(C(C)Nc2ccccc2C(=O)O)c2oc(-c3ccc4cn(C)nc4n3)cc(=O)c2c1 (single isomer, unassigned) [Example 135, 2-[1-[6-Methyl-2-(2-methylpyrazolo[3,4-b]pyridin-6-yl)-4-oxo-chromen-8-yl]ethylamino]benzoic acid]
		< 500 nM	< 500 nM	Cc1cc(C(C)Nc2ccccc2C(=O)O)c2oc(-c3ccc4c(c3)OCO4)cc(=O)c2c1 (single isomer, unassigned) [Example 46, 2-[1-[2-(1,3-Benzodioxol-5-yl)-6-methyl-4-oxo-chromen-8-yl]ethylamino]benzoic acid]
< 500 nM	> 10000 nM			CC(Nc1ccc(Cl)nc1C(=O)O)c1cc(C(F)(F)F)cc2c(=O)cc(-c3cc(Cl)c4nn(C)cc4c3)oc12 (stereo not drawn) [Example 173, 6-Chloro-3-[1-[2-(7-chloro-2-methyl-indazol-5-yl)-4-oxo-6-(trifluoromethyl)chromen-8-yl]ethylamino]pyridine-2-carboxylic acid]
< 500 nM	1000 to 5000 nM			Cc1cc(C(C)Nc2ccccc2C(=O)O)c2oc(-c3ccc4c(C)n[nH]c4c3)cc(=O)c2c1 (single isomer, unassigned) [Example 28, 2-[1-[6-Methyl-2-(3-methyl-1H-indazol-6-yl)-4-oxo-chromen-8-yl]ethylamino]benzoic acid]
< 500 nM	1000 to 5000 nM			Cc1cc(C(C)Nc2ccc(Cl)c(F)c2C(=O)O)c2oc(-c3c(C)nc4ccccn34)cc(=O)c2c1 (single isomer, unassigned) [Example 182, 3-Chloro-2-fluoro-6-[1-[6-methyl-2-(2-methylimidazo[1,2-a]pyridin-3-yl)-4-oxo-chromen-8-yl]ethylamino]benzoic acid]
< 500 nM	500 to 1000 nM			Cc1c(-c2cc3ccccc3[nH]2)oc2c(C(C)Nc3ccccc3C(=O)O)cc(F)cc2c1=O (single isomer, unassigned) [Example 129, 2-[1-[6-Fluoro-2-(1H-indol-2-yl)-3-methyl-4-oxo-chromen-8-yl]ethylamino]benzoic acid]
> 10000 nM	> 10000 nM			Cc1cc(C(C)Nc2ccccc2C(=O)O)c2oc(-c3ccc4cncnc4c3)cc(=O)c2c1 (single isomer, unassigned) [Example 114, 2-[1-(6-Methyl-4-oxo-2-quinazolin-7-yl-chromen-8-yl)ethylamino]benzoic acid]
< 500 nM	< 500 nM			Cc1cc(C(C)Nc2ccc(Cl)nc2C(=O)O)c2oc(-c3ccc4nn(C)cc4c3)c(C)c(=O)c2c1 (single isomer, unassigned) [Example 181, 6-Chloro-3-[1-[3,6-dimethyl-2-(2-methylindazol-5-yl)-4-oxo-chromen-8-yl]ethylamino]pyridine-2-carboxylic acid]
< 500 nM	> 10000 nM			CC(Nc1ccc(Cl)nc1C(=O)O)c1cc(C(F)(F)F)cc2c(=O)cc(-c3cc4ccccc4[nH]3)oc12 (single isomer, unassigned) [Example 100, 6-Chloro-3-[1-[2-(1H-indol-2-yl)-4-oxo-6-(trifluoromethyl)chromen-8-yl]ethylamino]pyridine-2-carboxylic acid]
< 500 nM	1000 to 5000 nM			Cc1cc(C(C)Nc2ccccc2C(=O)O)c2oc(-c3ccc4c(c3)CN(C)C4=O)cc(=O)c2c1 (stereo not drawn) [Example 30, 2-[1-[6-Methyl-2-(2-methyl-1-oxo-isoindolin-5-yl)-4-oxo-chromen-8-yl]ethylamino]benzoic acid]

Source: patent US11878970B2, “Allosteric chromenone inhibitors of phosphoinositide 3-kinase (PI3K) for the treatment of disease” (Petra Pharma Corporation, priority 2021, dated 2024)
